Data taken from ChEMBL document CHEMBL4184333, “Expanding Benzoxazole-Based Inosine 5'-Monophosphate Dehydrogenase (IMPDH) Inhibitor Structure-Activity As Potential Antituberculosis Agents” (J Med Chem, 2018).
Converted amounts (≈) assume the structure as drawn. The source made the active and inactive calls. The rule behind the calls is not given here.

Experiments:
[1] = Elimination half life in mouse plasma at 20 mg/kg, po; format: ADME, organism-based; details: read-out: beta t1/2 (converted)
[2] = Cmax in mouse at 20 mg/kg, po; format: ADME, organism-based; parameters: dose 20 mg/kg, route oral; details: in vivo
[3] = system: Mycobacterium tuberculosis; experiment: Antitubercular activity against Mycobacterium tuberculosis H37Rv ATCC 27294 using GAST/Fe medium after 1 week in presence of guanine by broth microdilution method; format: functional; details: H37Rv ATCC 27294, 168 h
HeLa = experiment: Cytotoxicity against human HeLa cells assessed as LDH release at 25 uM after 24 hrs relative to control; format: cell-based
[4] = Half life in mouse liver microsomes in presence of NADPH; format: ADME, microsome
[5] = system: Mycobacterium tuberculosis; experiment: Antitubercular activity against Mycobacterium tuberculosis H37Rv ATCC 27294 using 7H9/ADC/Tween medium after 2 weeks in absence of guanine by broth microdilution method; format: functional, organism-based
MCF7 = experiment: Cytotoxicity against human MCF7 cells assessed as LDH release at 25 uM after 24 hrs relative to control; format: cell-based; details: mcf7, 24 h
[6] = Protein binding in mouse serum at 20 mg/kg, po; format: ADME, organism-based; details: read-out: PB
[7] = Drug metabolism in mouse plasma after 2 hrs; format: ADME, cell-free
HepG2 [8] = experiment: Cytotoxicity against human HepG2 cells assessed as LDH release at 25 uM after 24 hrs relative to control; format: cell-based; details: hepg2, 24 h
[9] = system: Mycobacterium tuberculosis; experiment: Antitubercular activity against Mycobacterium tuberculosis H37Rv ATCC 27294 using 7H9/ADC/Tween medium after 1 week in absence of guanine and presence of anhydrotetracycline by Alamar blue assay; format: functional; details: H37Rv ATCC 27294, 168 h
[10] = system: Mycobacterium tuberculosis; experiment: Antitubercular activity against Mycobacterium tuberculosis H37Rv ATCC 27294 using GAST/Fe medium after 2 weeks in absence of guanine by broth microdilution method; format: functional, organism-based
GMP reductase 2 = target: T1, GMP reductase 2 (Homo sapiens, UniProt Q9P2T1); experiment: Inhibition of human GMPR2 using GMP as substrate by spectrophotometric method; details: read-out: Ki(app)
T1 sequence (Q9P2T1 whole entry): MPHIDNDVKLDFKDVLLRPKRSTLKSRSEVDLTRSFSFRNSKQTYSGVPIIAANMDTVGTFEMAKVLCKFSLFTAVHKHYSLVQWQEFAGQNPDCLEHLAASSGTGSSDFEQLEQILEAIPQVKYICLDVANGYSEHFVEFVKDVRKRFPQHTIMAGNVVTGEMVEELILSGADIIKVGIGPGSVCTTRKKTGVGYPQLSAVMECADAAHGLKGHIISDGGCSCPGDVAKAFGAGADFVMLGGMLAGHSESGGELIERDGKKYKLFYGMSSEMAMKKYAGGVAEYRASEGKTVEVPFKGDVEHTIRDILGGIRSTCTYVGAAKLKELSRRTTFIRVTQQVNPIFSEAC

HEK-293T = experiment: Cytotoxicity against human HEK293T cells assessed as LDH release at 25 uM after 24 hrs relative to control; format: cell-based
[11] = system: Mycobacterium tuberculosis; experiment: Antitubercular activity against Mycobacterium tuberculosis H37Rv ATCC 27294 using 7H9/ADC/Tween medium after 1 week in presence of guanine by broth microdilution method; format: functional; details: H37Rv ATCC 27294, 168 h
[12] = (§1) Cytotoxicity against human HepG2 cells after 24 hrs by LDH release assay; format: cell-based; details: HepG2 cells, read-out: LD50
[13] = target: Inosine-5'-monophosphate dehydrogenase 2 (Homo sapiens, UniProt P12268); experiment: Inhibition of human IMPDH2 using IMP as substrate by spectrophotometric method; details: read-out: Ki(app)
[14] = Tmax in mouse at 20 mg/kg, po; format: ADME, organism-based; details: in vivo
[15] = system: Mycobacterium tuberculosis; experiment: Antitubercular activity against Mycobacterium tuberculosis H37Rv ATCC 27294 using 7H9/ADC/Tween medium after 1 week in absence of guanine by broth microdilution method; format: functional; details: H37Rv ATCC 27294, 168 h
[16] = system: Mycobacterium tuberculosis; experiment: Antitubercular activity against Mycobacterium tuberculosis H37Rv ATCC 27294 using GAST/Fe medium after 1 week in absence of guanine by broth microdilution method; format: functional; details: H37Rv ATCC 27294, 168 h
[17] = Half life in mouse liver microsomes in absence of NADPH; format: ADME, microsome
HepG2 [18] = experiment: as §1; format: cell-based; details: hepg2, 24 h

Row | Compound | MIC [3] [µM] | Activity [5] | Activity (HepG2 [8]) [%] | Activity [10] | Ki (GMP reductase 2) [µM] | MIC [11] [µM] | CC50 at 24 h [12] [µM] | Ki [13] [µM] | MIC [15] [µM] | MIC [16] [µM] | further results
1 | C[C@H](Nc1cccc(F)c1F)C(=O)Nc1ccc2oc(-c3ccc(C#N)cc3)nc2c1 | 6 | Active | 9 to 13 | Active | > 5 | 1.4 | > 25 | > 5 | 1 to 3.1 (≈ 0.418 to 1.3 µg/mL) | 2 (≈ 0.837 µg/mL) | half-life [1]: 300 min; Cmax [2]: 3000 nM; Activity (HeLa): < 10%; t1/2 [4]: 26 min; Activity (MCF7): < 10%; fraction unbound [6]: < 0.01; Drug metabolism [7]: Metabolite_Notdetected; MIC [9]: 3.1 µM; Activity (HEK-293T): < 10%; Tmax [14]: 30 min
2 | C[C@H](Oc1cccc(F)c1F)C(=O)Nc1ccc2oc(-c3ccncc3)nc2c1 | 6.3 | Active |  | Active | > 5 | 4 |  | > 5 | 1.9 (≈ 0.751 µg/mL) | 4 (≈ 1.58 µg/mL) | 
3 | CCOC(=O)COc1ccc(-c2nc3cc(NC(=O)[C@H](C)Oc4cccc(Cl)c4Cl)ccc3o2)cc1 | 0.5 | Active |  | Active | > 5 | 0.23 |  | > 5 | 0.2 to 3.1 (≈ 0.106 to 1.64 µg/mL) | 0.4 (≈ 0.212 µg/mL) | t1/2 [17]: 1.3 min; Activity (HepG2 [18]): Non-Toxic
4 | C#CCOC(=O)COc1ccc(-c2nc3cc(NC(=O)[C@H](C)Oc4cccc(Cl)c4Cl)ccc3o2)cc1 | 1.4 | Active |  | Active | > 5 | 0.4 |  | > 5 | 0.2 (≈ 0.108 µg/mL) | 0.4 (≈ 0.216 µg/mL) | Activity (HepG2 [18]): Non-Toxic
5 | C[C@H](Nc1cccc(Cl)c1Cl)C(=O)Nc1ccc2oc(-c3ccc(C#N)cc3)nc2c1 | 13 | Active |  | Active | > 5 | 6 |  | 3.3 | 3 (≈ 1.35 µg/mL) | 4 (≈ 1.81 µg/mL) | 
6 | C[C@H](Oc1cccc(Cl)c1Cl)C(=O)Nc1ccc2oc(-c3ccc(OCC(=O)O)cc3)nc2c1 | 4 |  |  |  | > 5 | 20 |  | > 5 | 9 (≈ 4.51 µg/mL) | 2 (≈ 1 µg/mL) | t1/2 [17]: 23 min
7 | COc1ccc(-c2nc3cc(NC(=O)[C@H](C)Oc4ccccc4C#N)ccc3o2)cc1 | 6.3 | Active | 9 to 13 | Active | > 5 | 4.7 | > 25 | > 5 | 1.2 (≈ 0.496 µg/mL) | 3.1 (≈ 1.28 µg/mL) | 
8 | COc1ccc(OC(C)C(=O)Nc2ccc3oc(-c4ccncc4)nc3c2)cc1 (configuration not stated) | 24 |  |  |  | > 5 | 21 |  | > 5 | 10 to 12.5 (≈ 3.89 to 4.87 µg/mL) | 5.3 (≈ 2.06 µg/mL) | MIC [9]: 12.5 µM
9 | C[C@H](Oc1cccc(F)c1F)C(=O)Nc1ccc2oc(-c3ccc(C#N)cc3)nc2c1 | 6.3 |  | 9 to 13 |  | > 5 | 4 | > 25 | 2 | 1.5 (≈ 0.629 µg/mL) | 3 (≈ 1.26 µg/mL) | 
